Measurements reported in US6503534B1, “Pharmaceutical compositions for prolonged peptide release and preparation method” (Societe de Conseils de Recherches et d'Applications …, priority 1998, dated 2003).

Test: Measurement of the specific surface area (B.E.T method)
Assay type: physicochemical
Details: lanreotide acetate recovered after flash freezing and lyophilization
Procedure: For all the following examples, the specific surface area of the peptide salt was determined by the so-called B.E.T method (absorption of a nitrogen monolayer on the active substance), a method well known to a person skilled in the art.

Compound: CC(C)[C@@H]1NC(=O)[C@H](CCCCN)NC(=O)[C@@H](Cc2c[nH]c3ccccc23)NC(=O)[C@H](Cc2ccc(O)cc2)NC(=O)[C@@H](NC(=O)[C@H](N)Cc2ccc3ccccc3c2)CSSC[C@@H](C(=O)N[C@H](C(N)=O)[C@@H](C)O)NC1=O [Example 3, lanreotide acetate]
- Specific surface area obtained: 36 m^2/g

Compound: CC(C)[C@@H]1NC(=O)[C@H](CCCCN)NC(=O)[C@@H](Cc2c[nH]c3ccccc23)NC(=O)[C@H](Cc2ccc(O)cc2)NC(=O)[C@@H](NC(=O)[C@H](N)Cc2ccc3ccccc3c2)CSSC[C@@H](C(=O)N[C@H](C(N)=O)[C@@H](C)O)NC1=O [Example 4, lanreotide acetate]
- Specific surface area obtained: 43 m^2/g
